Test results taken from ChEMBL document CHEMBL4190285, “Borapetoside E, a Clerodane Diterpenoid Extracted from Tinospora crispa, Improves Hyperglycemia and Hyperlipidemia in High-Fat-Diet-Induced Type 2 Diabetes Mice” (J Nat Prod, 2017).
Activity calls are given as the source filed them. No cut-off for these calls is given here.

Assays:
Mus musculus [1] = test: Antiobesity activity in HFFD-induced obese C57BL/6J mouse assessed as reduction in body weight at 40 mg/kg, ip administered twice daily for 2.5 days followed by once daily dosing up to 16 days relative to control; assay type: functional; set-up: scale not given: the % may be the effect or the level left
Mus musculus [2] = test: Improvement in insulin resistance in high fat diet-induced obese C57BL/6J mouse assessed as increase in phosphorylated AKT ser473 level in liver at 40 mg/kg, ip administered twice daily for 2.5 days measured at 2 hrs post last dose by Western blot analysis; assay type: functional, organism-based
Mus musculus [3] = test: Antihyperlipidemic activity in high fat diet-induced obese C57BL/6J mouse assessed as reduction in liver triglyceride levels at 20 to 40 mg/kg, ip administered twice daily for 2.5 days measured at 2 hrs post last dose; assay type: functional, organism-based
Mus musculus [4] = test: Down regulation of SREBP2 mRNA expression in HFD-induced obese C57BL/6J mouse liver at 20 to 40 mg/kg, ip administered twice daily for 2.5 days measured at 2 hrs post last dose by RT-PCR analysis; assay type: functional, organism-based
Mus musculus [5] = test: Down regulation of SREBP2 mRNA expression in HFD-induced obese C57BL/6J mouse adipose tissue at 20 to 40 mg/kg, ip administered twice daily for 2.5 days measured at 2 hrs post last dose by RT-PCR analysis; assay type: functional, organism-based
Mus musculus [6] = test: Improvement in insulin resistance in high fat diet-induced obese C57BL/6J mouse assessed as increase in insulin sensitivity index at 40 mg/kg, ip pretreated twice daily for 2.5 days followed by insulin challenge at 2 hrs post last dose measured up to 2 hrs by ITT; assay type: functional, organism-based
Mus musculus [7] = test: Antihyperlipidemic activity in high fat diet-induced obese C57BL/6J mouse assessed as serum LDL-C levels at 40 mg/kg, ip administered twice daily for 2.5 days measured at 2 hrs post last dose (reference value: 2.54 +/- 0.87 mmol/L); assay type: functional
Mus musculus [8] = test: Down regulation of pre-SREBP1 expression in HFD-induced obese C57BL/6J mouse liver at 20 to 40 mg/kg, ip administered twice daily for 2.5 days measured at 2 hrs post last dose by Western blot analysis; assay type: functional, organism-based
Mus musculus [9] = test: Down regulation of HMGCS mRNA expression in HFD-induced obese C57BL/6J mouse liver at 20 to 40 mg/kg, ip administered twice daily for 2.5 days measured at 2 hrs post last dose by RT-PCR analysis; assay type: functional, organism-based
Mus musculus [10] = test: Toxicity in HFFD-induced obese C57BL/6J mouse assessed as serum creatinine level at 40 mg/kg, ip administered twice daily for 2.5 days followed by once daily dosing up to 16 days measured at 2 hrs post last dose (reference value: 100.67 +/- 17.2 umol/L); assay type: organism-based; details: in vivo
Mus musculus [11] = test: Antihyperlipidemic activity in high fat diet-induced obese C57BL/6J mouse assessed as serum total cholesterol levels at 40 mg/kg, ip administered twice daily for 2.5 days measured at 2 hrs post last dose (reference value: 4.56 +/- 1.01 mmol/L); assay type: functional
Mus musculus [12] = test: Down regulation of ACL1 mRNA expression in HFD-induced obese C57BL/6J mouse liver at 20 to 40 mg/kg, ip administered twice daily for 2.5 days measured at 2 hrs post last dose by RT-PCR analysis; assay type: functional, organism-based
Mus musculus [13] = test: Improvement in serum ALT level in HFFD-induced obese C57BL/6J mouse assessed as serum ALT level at 40 mg/kg, ip administered twice daily for 2.5 days followed by once daily dosing up to 16 days measured at 2 hrs post last dose (reference value: 20.49 +/- 4.5 IU/L); assay type: functional
Mus musculus [14] = test: Effect on respiratory exchange ratios in HFD-induced obese C57BL/6J mouse at 40 mg/kg, ip administered twice daily for 2.5 days incubated for 12.6 hrs under dark condition followed by redosing on day 3 for 2 times; assay type: functional, organism-based
Mus musculus [15] = test: Antihyperlipidemic activity in high fat diet-induced obese C57BL/6J mouse assessed as reduction in free fatty acid level in epididymis adipose tissue at 20 to 40 mg/kg, ip administered twice daily for 2.5 days measured at 2 hrs post last dose; assay type: functional, organism-based
Mus musculus [16] = test: Antihyperglycemic activity in high fat diet-induced obese C57BL/6J mouse assessed as reduction in blood glucose level at 40 mg/kg, ip administered as single dose measured after 36 hrs; assay type: functional, organism-based
Mus musculus [17] = test: Down regulation of ACL1 mRNA expression in HFD-induced obese C57BL/6J mouse adipose tissue at 20 to 40 mg/kg, ip administered twice daily for 2.5 days measured at 2 hrs post last dose by RT-PCR analysis; assay type: functional, organism-based
Mus musculus [18] = test: Antihyperglycemic activity in high fat diet-induced obese C57BL/6J mouse assessed as reduction in blood glucose AUC at 40 mg/kg, ip pretreated twice daily for 2.5 days followed by glucose challenge at 2 hrs post last dose by OGTT; assay type: functional, organism-based
Mus musculus [19] = test: Toxicity in HFFD-induced obese C57BL/6J mouse assessed as effect on food intake at 40 mg/kg, ip administered twice daily for 2.5 days followed by once daily dosing up to 16 days measured daily during compound dosing; assay type: organism-based; details: in vivo
Mus musculus [20] = test: Toxicity in HFFD-induced obese C57BL/6J mouse assessed as serum creatinine kinase level at 40 mg/kg, ip administered twice daily for 2.5 days followed by once daily dosing up to 16 days measured at 2 hrs post last dose (reference value: 551.93 +/- 126.48 U/L); assay type: organism-based; details: in vivo
Mus musculus [21] = test: Antihyperlipidemic activity in high fat diet-induced obese C57BL/6J mouse assessed as reduction in triglyceride level in epididymis adipose tissue at 20 to 40 mg/kg, ip administered twice daily for 2.5 days measured at 2 hrs post last dose; assay type: functional, organism-based
Mus musculus [22] = test: Down regulation of FAS mRNA expression in HFD-induced obese C57BL/6J mouse liver at 20 to 40 mg/kg, ip administered twice daily for 2.5 days measured at 2 hrs post last dose by RT-PCR analysis; assay type: functional, organism-based
Mus musculus [23] = test: Antihyperlipidemic activity in high fat diet-induced obese C57BL/6J mouse assessed as reduction in liver free fatty acid level at 20 to 40 mg/kg, ip administered twice daily for 2.5 days measured at 2 hrs post last dose; assay type: functional, organism-based
Mus musculus [24] = test: Down regulation of SREBP1 mRNA expression in HFD-induced obese C57BL/6J mouse liver at 20 to 40 mg/kg, ip administered twice daily for 2.5 days measured at 2 hrs post last dose by RT-PCR analysis; assay type: functional, organism-based
Mus musculus [25] = test: Down regulation of HMGCR mRNA expression in HFD-induced obese C57BL/6J mouse adipose tissue at 20 to 40 mg/kg, ip administered twice daily for 2.5 days measured at 2 hrs post last dose by RT-PCR analysis; assay type: functional, organism-based
Mus musculus [26] = test: Antihyperlipidemic activity in high fat diet-induced obese C57BL/6J mouse assessed as reduction in liver cholesterol levels at 20 to 40 mg/kg, ip administered twice daily for 2.5 days measured at 2 hrs post last dose; assay type: functional, organism-based
Mus musculus [27] = test: Effect on respiratory exchange ratios in HFD-induced obese C57BL/6J mouse at 40 mg/kg, ip administered twice daily for 2.5 days measured up to 12.6 hrs under dark condition; assay type: functional, organism-based
Mus musculus [28] = test: Improvement in insulin resistance in high fat diet-induced obese C57BL/6J mouse assessed as reduction in blood glucose AUC at 40 mg/kg, ip administered as single dose pretreated for 2 hrs followed by insulin challenge measured up to 2 hrs by ITT; assay type: functional, organism-based

COC(=O)C1=CCC[C@H]2[C@](C)(C[C@@H](O[C@@H]3O[C@H](CO)[C@@H](O)[C@H](O)[C@H]3O)c3ccoc3)[C@H]3C[C@H](OC3=O)[C@@]12C
Activity (Mus musculus [1]): 8.7%
Activity (Mus musculus [2]): Active
Activity (Mus musculus [3]): Active
Activity (Mus musculus [4]): Active
Activity (Mus musculus [5]): Active
Activity (Mus musculus [6]): Active
Activity (Mus musculus [7]): 1.65 mmol/L
Activity (Mus musculus [8]): Active
Activity (Mus musculus [9]): Active
Activity (Mus musculus [10]): 86.37 µmol/L
Activity (Mus musculus [11]): 2.24 mmol/L
Activity (Mus musculus [12]): Active
Activity (Mus musculus [13]): 15.75 IU/L
Activity (Mus musculus [14]): inactive
Activity (Mus musculus [15]): Active
Activity (Mus musculus [16]): Active
Activity (Mus musculus [17]): Active
Activity (Mus musculus [18]): Active
Activity (Mus musculus [19]): Non-Toxic
Activity (Mus musculus [20]): 520.4 U/L
Activity (Mus musculus [21]): Active
Activity (Mus musculus [22]): Active
Activity (Mus musculus [23]): Active
Activity (Mus musculus [24]): Active
Activity (Mus musculus [25]): Active
Activity (Mus musculus [26]): Active
Activity (Mus musculus [27]): inactive
Activity (Mus musculus [28]): Active
